Values quoted from earlier work in patent US20220289809A1, “USE OF RELAXIN TO TREAT ATRIAL FIBRILLATION” (University of Pittsburgh - Of the Commonwealth System of …, priority 2012, published 2022).

Test system: CHF canine model

**Q.** Which results are given for `Cc1ccc(=O)n(-c2ccccc2)c1` [Pirfenidone]?
**A.** atrial CV: did not generate a significantly greater increase in atrial CV; fibrosis and AF: reverse fibrosis and attenuate AF
